Emax and EC50 data for twelve compounds are collected here from patent publication US8846760B2, “Dihydronaphthalene and naphthalene derivatives as N-formyl peptide receptor like-1 (FPRL-1) receptor modulators” (Allergan, Inc., priority 2011, dated 2014).

For orientation: EC50 means the concentration needed to bring the measured effect to its halfway point.

The target in the test is T1, FPRL-1 (Homo sapiens, UniProt P25090).
T1 construct: expressed in transfected cells
T1 sequence (P25090 1-351): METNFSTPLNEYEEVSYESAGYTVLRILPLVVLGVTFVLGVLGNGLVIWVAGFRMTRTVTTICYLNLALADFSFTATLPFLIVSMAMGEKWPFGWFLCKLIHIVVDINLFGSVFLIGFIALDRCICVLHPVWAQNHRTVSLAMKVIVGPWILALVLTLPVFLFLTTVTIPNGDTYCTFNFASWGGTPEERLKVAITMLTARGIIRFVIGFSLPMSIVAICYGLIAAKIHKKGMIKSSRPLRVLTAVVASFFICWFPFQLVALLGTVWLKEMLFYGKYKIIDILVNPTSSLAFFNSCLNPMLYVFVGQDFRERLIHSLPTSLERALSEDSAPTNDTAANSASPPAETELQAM
Nature of the test: Compound-induced calcium activity on FLIPR Tetra in CHO-Gα16 cells stably expressing FPRL1. Type of test: cell-based. As to conditions: for Emax: efficacy, read-out: FPRL-1 Ga16-CHO (eff %); for EC50: tested 0.61 to 10,000 nM, read-out: FPRL-1 Ga16-CHO EC50. How it is done:
CHO-Gα16 cells stably expressing FPRL1 were cultured in (F12, 10% FBS, 1% PSA, 400 μg/ml geneticin and 50 μg/ml hygromycin) and HEK-Gqi5 cells stable expressing FPR1 were cultured in (DMEM high glucose, 10% FBS, 1% PSA, 400 μg/ml geneticin and 50 μg/ml hygromycin). In general, the day before the experiment, 18,000 cells/well were plated in a 384-well clear bottom poly-d-lysine coated plate. The following day the screening compound-induced calcium activity was assayed on the FLIPR^Tetra. The drug plates were prepared in 384-well microplates using the EP3 and the MultiPROBE robotic liquid handling systems. Compounds were tested at concentrations ranging from 0.61 to 10,000 nM. Results are expressed as EC50 (nM) and efficacy values.

Take `CCc1cc(C(=O)Nc2ccc(Br)cc2)c(C(=O)O)c2ccccc12` [Compound 12, 2-{[(4-Bromophenyl)amino]carbonyl}-4-ethyl-1-naphthoic acid]: the Emax is 95% and the EC50 came to 165 nM.
As for `CC(C)c1cccc2c1CCC(C(=O)Nc1ccc(Br)cc1)=C2C(=O)O` [Compound 1, 2-{[(4-Bromophenyl)amino]carbonyl}-5-isopropyl-3,4-dihydronaphthalene-1-carboxylic Acid], the Emax worked out at 80% and the EC50 came to 756 nM.
Consider `O=C(O)C1=C(C(=O)Nc2ccc(Br)cc2)CCc2c1cccc2-c1ccccc1` [Compound 5, 2-{[(4-Bromophenyl)amino]carbonyl}-5-phenyl-3,4-dihydronaphthalene-1-carboxylic acid], for which the Emax stood at 100% and the EC50 was determined as 566 nM.
On to `Cc1cc(C)c2c(c1)C(C(=O)O)=C(C(=O)Nc1ccc(Br)cc1)CC2` [Compound 7, 2-{[(4-Bromophenyl)amino]carbonyl}-5,7-dimethyl-3,4-dihydronaphthalene-1-carboxylic acid], for which the Emax is 95% and the EC50 came out at 3920 nM.
As for `CC(C)(C)c1ccc2c(c1)C(C(=O)O)=C(C(=O)Nc1ccc(Br)cc1)CC2` [Compound 2, 2-{[(4-Bromophenyl)amino]carbonyl}-7-tert-butyl-3,4-dihydronaphthalene-1-carboxylic acid], the Emax was found to be 86% and the EC50 was found to be 1320 nM.
`O=C(O)C1=C(C(=O)Nc2ccc(Br)cc2)CCc2ccc(Cl)cc21` [Compound 4, 2-{[(4-Bromophenyl)amino]carbonyl}-7-chloro-3,4-dihydronaphthalene-1-carboxylic acid]: the Emax stood at 81% and the EC50 was 777 nM.
Consider `CC1(C)CCC(C)(C)c2cc(C(=O)Nc3ccc(Br)cc3)c(C(=O)O)cc21` [Compound 10, 3-{[(4-Bromophenyl)amino]carbonyl}-5,5,8,8-tetramethyl-5,6,7,8-tetrahydronaphthalene-2-carboxylic acid], for which the Emax was 58% and the 50% effective concentration (EC50) worked out at 1560 nM.
`O=C(Nc1ccc(Br)cc1)c1ccc2ccccc2c1C(=O)O` [Compound 11, 2-{[(4-Bromophenyl)amino]carbonyl}-1-naphthoic acid]: the Emax is 100% and the EC50 was found to be 1300 nM.
With `CC1(C)CC(C(=O)Nc2ccc(Br)cc2)=C(C(=O)O)c2ccccc21` [Compound 3, 2-{[(4-Bromophenyl)amino]carbonyl}-4,4-dimethyl-3,4-dihydronaphthalene-1-carboxylic acid], the Emax was found to be 95% and the EC50 was found to be 87 nM.
`O=C(O)c1cc2ccccc2cc1C(=O)Nc1ccc(Br)cc1` [Compound 9, 3-{[(4-Bromophenyl)amino]carbonyl}-2-naphthoic acid]: the Emax is 92% and the EC50 was determined as 5930 nM.
With `O=C(O)C1=C(C(=O)Nc2ccc(Br)cc2)CCc2ccccc21` [Compound 6, 2-{[(4-Bromophenyl)amino]carbonyl}-3,4-dihydronaphthalene-1-carboxylic acid], the Emax was determined as 90% and the EC50 came to 383 nM.
`Cc1ccc(C)c2c1CCC(C(=O)Nc1ccc(Br)cc1)=C2C(=O)O` [Compound 8, 2-{[(4-Bromophenyl)amino]carbonyl}-5,8-dimethyl-3,4-dihydronaphthalene-1-carboxylic acid]: the Emax came out at 93% and the EC50 came to 198 nM.
